This note sets out measurements from patent US9884886B2, “Disulfide masked prodrug compositions and methods” (Merck Sharp & Dohme Corp., priority 2012, dated 2018).

A word on the half-life: it is the time needed for the level to fall by half in the phase considered.

Structures are written as SMILES.

The nature of the data set: Exposure of DTE- or DTT-based dimers to glutathione, release of dimer phosphodiester. Type of data set: physicochemical. As to the method: The half life of prodrug-dimer 5-2 was dependent on the character and excess of the reducing reagent (500:1/Prodrug:GSH), in this instance approximately 4 hours. The kinetics of the release was also dependent on pH and 1M TRIS hydrochloride buffers of pH values varied between 5.0 and 7.8 were used.

For the compound `C#CCO[C@@H]1CSSC[C@H]1OP(=O)(OC[C@H]1O[C@@H](n2ccc(=O)[nH]c2=O)[C@H](OC)[C@@H]1OC(=O)CCC(C)=O)O[C@H]1[C@@H](OC)[C@H](n2ccc(=O)[nH]c2=O)O[C@@H]1COC(c1ccccc1)(c1ccc(OC)cc1)c1ccc(OC)cc1` (stereo partly drawn) [Compound 5-2, (2R,3R,4R,5R)-2-{[({[(2R,3R,4R,5R)-2-{[bis(4-methoxyphenyl)(phenyl)methoxy]methyl}-5-(2,4-dioxo-3,4-dihydropyrimidin-1(2H)-yl)-4-methoxytetrahydrofuran-3-yl]oxy}{[(4S,5S)-5-(prop-2-yn-1-yloxy)-1,2-dithian-4-yl]oxy}phosphoryl)oxy]methyl}-5-(2,4-dioxo-3,4-dihydropyrimidin-1(2H)-yl)-4-methoxytetrahydrofuran-3-yl 4-oxopentanoate], where the note is “1M TRIS hydrochloride buffer with glutathione (GSH), pH 7.3, 500:1/Prodrug:GSH, pH 7.30, 1M TRIS hydrochloride buffer”, the half-life was roughly 240 min. Also, the “release at acidic conditions” value (buffers of pH between 5.0 and 7.8) is “considerably slower”.
